Each compound was assayed against CD137 (Homo sapiens, UniProt Q07011) (assay: CD137 reporter assay, co-culture with PD-L1 expressing cell line RKO). Conditions: tumour target PD-L1, co-culture with RKO, 6 h.
Format: cell-based
Design: host or cells: Jurkat reporter cells
Method: Culture medium referred to as R1 media is prepared by adding 1% FBS to RPMI-1640 (component of Promega kit CS196005). Serial dilutions of test articles in R1 are prepared in a sterile 96 well-plate. Use 25 μl per well of test articles or R1 (as a background control) to designated wells in white cell culture plate. Tumour cells* are harvested and resuspended at a concentration of 400,000 cells/mL in R1 media. Twenty five (25) μL/well tumour cells are used in white cell culture plate. Jurkat cells (Promega kit CS196005, 0.5 mL) are thawed in the water bath and then added to 5 ml pre-warmed R1 medium. Twenty five (25) μL/well Jurkat cells are used in white cell culture plate. Incubate the cells and test articles for 6h at 37° C., 5% CO2. At the end of 6 h, add 75 μl/well Bio-Glo™ (Promega) and incubate for 10 min before reading luminescence in a plate reader (Clariostar, BMG). The fold change relative to cells (Jurkat cells+Cell line used in co-culture) is calculated and plotted in GraphPad Prism as log(agonist) vs response to determine EC50 (nM) and Fold Induction over background (Max)

CD137, sequence (Q07011 24-255): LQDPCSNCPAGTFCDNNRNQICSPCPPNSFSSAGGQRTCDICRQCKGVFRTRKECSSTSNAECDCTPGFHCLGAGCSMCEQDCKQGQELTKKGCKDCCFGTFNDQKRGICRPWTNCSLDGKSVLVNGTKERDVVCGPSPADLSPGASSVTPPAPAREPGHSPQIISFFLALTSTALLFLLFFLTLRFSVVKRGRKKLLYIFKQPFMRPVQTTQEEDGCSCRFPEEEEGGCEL

Row | Structure (SMILES) | EC50 [nM] | Fold Induction over Background [fold]
1 | CCCC[C@@H]1NC(=O)[C@H](Cc2ccc(O)cc2)NC(=O)[C@@H]2CCCN2C(=O)[C@H](CC(=O)O)NC(=O)[C@H](C)NC(=O)[C@H](Cc2ccccc2)NC(=O)[C@@H]2CSCCC(=O)N3CN(CN(C3)C(=O)CCSC[C@@H](C(=O)N[C@@H](CNC(=O)CCOCCOCCOCCOCCOCCOCCOCCOCCOCCOCCOCCOCCn3cc(CCC(=O)NCCC(=O)N(C)CC(=O)N(C)CC(=O)N(C)CC(=O)N(C)CC(=O)N(C)CC(=O)N(C)CC(=O)N(C)CC(=O)N(C)CC(=O)N(C)CC(=O)N(C)CC(=O)N[C@@H](CO)C(=O)N[C@@H](CC(=O)O)C(=O)N[C@@H](CCCCN)C(=O)N[C@H]4CSCCC(=O)N5CN6CN(C5)C(=O)CCSC[C@H](NC(=O)[C@H](CCSC)NC(=O)[C@H]([C@@H](C)O)NC(=O)[C@H](CC(C)C)NC(=O)[C@H](Cc5c[nH]c7ccccc57)NC(=O)CNC(=O)[C@H](C)NC(=O)[C@H](CO)NC4=O)C(=O)N[C@@H](CCC(N)=O)C(=O)N[C@@H](CCCCN)C(=O)N[C@@H](CC(C)C)C(=O)N[C@@H](Cc4c[nH]cn4)C(=O)N[C@@H](CC(C)C)C(=O)N[C@H](C(N)=O)CSCCC6=O)nn3)C(N)=O)NC1=O)C(=O)CCSC[C@H](NC(C)=O)C(=O)N[C@@H](CC(C)(C)C)C(=O)N1CCC[C@H]1C(=O)N[C@@H](CCC(=O)O)C(=O)N[C@H](C)C(=O)N1CCC[C@H]1C(=O)N[C@@H](Cc1ccc(O)cc1)C(=O)N2 [BCY10580] | 28 | 3
2 | CCCC[C@@H]1NC(=O)[C@H](Cc2ccc(O)cc2)NC(=O)[C@@H]2CCCN2C(=O)[C@H](CC(=O)O)NC(=O)[C@H](C)NC(=O)[C@H](Cc2ccccc2)NC(=O)[C@@H]2CSCCC(=O)N3CN(CN(C3)C(=O)CCSC[C@@H](C(=O)N[C@@H](CNC(=O)CCOCCOCCOCCOCCOCCOCCOCCOCCOCCOCCOCCOCCn3cc(CCC(=O)NCCCC[C@H](NC(=O)CN(C)C(=O)CN(C)C(=O)CN(C)C(=O)CN(C)C(=O)CN(C)C(=O)CN(C)C(=O)CN(C)C(=O)CN(C)C(=O)CN(C)C(=O)CN(C)C(=O)[C@@H]4CSCCC(=O)N5CN6CN(C5)C(=O)CCSC[C@H](NC(=O)[C@H](CCSC)NC(=O)[C@H]([C@@H](C)O)NC(=O)[C@H](CC(C)C)NC(=O)[C@H](Cc5c[nH]c7ccccc57)NC(=O)CNC(=O)[C@H](C)NC(=O)[C@H](CO)NC(=O)[C@@H](NC(=O)[C@H](CCCCN)NC(=O)[C@H](CC(=O)O)NC(=O)[C@@H](N)CO)CSCCC6=O)C(=O)N[C@@H](CCC(N)=O)C(=O)N[C@@H](CCCCN)C(=O)N[C@@H](CC(C)C)C(=O)N[C@@H](Cc5c[nH]cn5)C(=O)N[C@@H](CC(C)C)C(=O)N4)C(N)=O)nn3)C(N)=O)NC1=O)C(=O)CCSC[C@H](NC(C)=O)C(=O)N[C@@H](CC(C)(C)C)C(=O)N1CCC[C@H]1C(=O)N[C@@H](CCC(=O)O)C(=O)N[C@H](C)C(=O)N1CCC[C@H]1C(=O)N[C@@H](Cc1ccc(O)cc1)C(=O)N2 [BCY10581] | 18 | 6
3 | CCCC[C@@H]1NC(=O)[C@H](Cc2ccc(O)cc2)NC(=O)[C@@H]2CCCN2C(=O)[C@H](CC(=O)O)NC(=O)[C@H](C)NC(=O)[C@H](Cc2ccccc2)NC(=O)[C@@H]2CSCCC(=O)N3CN(CN(C3)C(=O)CCSC[C@@H](C(=O)N[C@@H](CNC(=O)CCOCCOCCOCCOCCOCCOCCOCCOCCOCCOCCOCCOCCn3cc(CCC(=O)NCCCC[C@@H]4NC(=O)[C@H](CCC(N)=O)NC(=O)[C@@H]5CSCCC(=O)N6CN(CN(C6)C(=O)CCSC[C@H](NC(=O)[C@H](CCCCN)NC(=O)[C@H](CC(=O)O)NC(=O)[C@@H](N)CO)C(=O)N[C@@H](CO)C(=O)N[C@@H](C)C(=O)NCC(=O)N[C@@H](Cc6c[nH]c7ccccc67)C(=O)N[C@@H](CC(C)C)C(=O)N[C@@H]([C@@H](C)O)C(=O)N[C@@H](CCSC)C(=O)N5)C(=O)CCSC[C@@H](C(N)=O)NC(=O)[C@H](CC(C)C)NC(=O)[C@H](Cc5c[nH]cn5)NC(=O)[C@H](CC(C)C)NC4=O)nn3)C(N)=O)NC1=O)C(=O)CCSC[C@H](NC(C)=O)C(=O)N[C@@H](CC(C)(C)C)C(=O)N1CCC[C@H]1C(=O)N[C@@H](CCC(=O)O)C(=O)N[C@H](C)C(=O)N1CCC[C@H]1C(=O)N[C@@H](Cc1ccc(O)cc1)C(=O)N2 [BCY10582] | 28 | 4
4 | CCCC[C@@H]1NC(=O)[C@H](Cc2ccc(O)cc2)NC(=O)[C@@H]2CCCN2C(=O)[C@H](CC(=O)O)NC(=O)[C@H](C)NC(=O)[C@H](Cc2ccccc2)NC(=O)[C@@H]2CSCCC(=O)N3CN(CN(C3)C(=O)CCSC[C@@H](C(=O)N[C@@H](C)C(N)=O)NC1=O)C(=O)CCSC[C@H](NC(C)=O)C(=O)N[C@@H](CC(C)(C)C)C(=O)N1CCC[C@H]1C(=O)N[C@@H](CCCCNC(=O)CCOCCOCCOCCOCCOCCOCCOCCOCCOCCOCCOCCOCCn1cc(CCC(=O)NCCCC[C@@H]3NC(=O)[C@H](CCC(N)=O)NC(=O)[C@@H]4CSCCC(=O)N5CN(CN(C5)C(=O)CCSC[C@@H](C(=O)N5CCC[C@H]5C(=O)N[C@@H](CO)C(=O)N[C@@H](Cc5c[nH]cn5)C(N)=O)NC(=O)[C@H](CC(C)C)NC(=O)[C@H](Cc5c[nH]cn5)NC(=O)[C@H](CC(C)C)NC3=O)C(=O)CCSC[C@H](NC(=O)[C@H](CCCCN)NC(=O)[C@H](CC(=O)O)NC(=O)[C@H](CO)NC(C)=O)C(=O)N[C@@H](CO)C(=O)N[C@@H](C)C(=O)NCC(=O)N[C@@H](Cc3c[nH]c5ccccc35)C(=O)N[C@@H](CC(C)C)C(=O)N[C@@H]([C@@H](C)O)C(=O)N[C@@H](CCSC)C(=O)N4)nn1)C(=O)N[C@H](C)C(=O)N1CCC[C@H]1C(=O)N[C@@H](Cc1ccc(O)cc1)C(=O)N2 [BCY11017] | – | 4
5 | CCCC[C@@H]1NC(=O)[C@H](Cc2ccc(O)cc2)NC(=O)[C@@H]2CCCN2C(=O)[C@H](CC(=O)O)NC(=O)[C@H](C)NC(=O)[C@H](Cc2ccccc2)NC(=O)[C@@H]2CSCCC(=O)N3CN(CN(C3)C(=O)CCSC[C@@H](C(=O)N[C@@H](C)C(N)=O)NC1=O)C(=O)CCSC[C@H](NC(C)=O)C(=O)N[C@@H](CC(C)(C)C)C(=O)N1CCC[C@H]1C(=O)N[C@@H](CCC(=O)O)C(=O)N[C@H](CCCCNC(=O)CCOCCOCCOCCOCCOCCOCCOCCOCCOCCOCCOCCOCCn1cc(CCC(=O)NCCCC[C@@H]3NC(=O)[C@H](CCC(N)=O)NC(=O)[C@@H]4CSCCC(=O)N5CN(CN(C5)C(=O)CCSC[C@@H](C(=O)N5CCC[C@H]5C(=O)N[C@@H](CO)C(=O)N[C@@H](Cc5c[nH]cn5)C(N)=O)NC(=O)[C@H](CC(C)C)NC(=O)[C@H](Cc5c[nH]cn5)NC(=O)[C@H](CC(C)C)NC3=O)C(=O)CCSC[C@H](NC(=O)[C@H](CCCCN)NC(=O)[C@H](CC(=O)O)NC(=O)[C@H](CO)NC(C)=O)C(=O)N[C@@H](CO)C(=O)N[C@@H](C)C(=O)NCC(=O)N[C@@H](Cc3c[nH]c5ccccc35)C(=O)N[C@@H](CC(C)C)C(=O)N[C@@H]([C@@H](C)O)C(=O)N[C@@H](CCSC)C(=O)N4)nn1)C(=O)N1CCC[C@H]1C(=O)N[C@@H](Cc1ccc(O)cc1)C(=O)N2 [BCY11018] | – | 7
6 | CCCC[C@@H]1NC(=O)[C@H](Cc2ccc(O)cc2)NC(=O)[C@@H]2CCCN2C(=O)[C@H](CC(=O)O)NC(=O)[C@H](C)NC(=O)[C@H](Cc2ccccc2)NC(=O)[C@@H]2CSCCC(=O)N3CN(CN(C3)C(=O)CCSC[C@@H](C(=O)N[C@@H](C)C(N)=O)NC1=O)C(=O)CCSC[C@H](NC(C)=O)C(=O)N[C@@H](CC(C)(C)C)C(=O)N1CCC[C@H]1C(=O)N[C@@H](CCCCNC(=O)Cn1cc(CCC(=O)NCCCC[C@@H]3NC(=O)[C@H](CCC(N)=O)NC(=O)[C@@H]4CSCCC(=O)N5CN(CN(C5)C(=O)CCSC[C@@H](C(=O)N5CCC[C@H]5C(=O)N[C@@H](CO)C(=O)N[C@@H](Cc5c[nH]cn5)C(N)=O)NC(=O)[C@H](CC(C)C)NC(=O)[C@H](Cc5c[nH]cn5)NC(=O)[C@H](CC(C)C)NC3=O)C(=O)CCSC[C@H](NC(=O)[C@H](CCCCN)NC(=O)[C@H](CC(=O)O)NC(=O)[C@H](CO)NC(C)=O)C(=O)N[C@@H](CO)C(=O)N[C@@H](C)C(=O)NCC(=O)N[C@@H](Cc3c[nH]c5ccccc35)C(=O)N[C@@H](CC(C)C)C(=O)N[C@@H]([C@@H](C)O)C(=O)N[C@@H](CCSC)C(=O)N4)nn1)C(=O)N[C@H](C)C(=O)N1CCC[C@H]1C(=O)N[C@@H](Cc1ccc(O)cc1)C(=O)N2 [BCY11376] | – | 9

Same assay, conditions: tumour target PD-L1, co-culture with RKO, 6 h; read-out: Fold Induction over Background

Row | Structure (SMILES) | fold induction
7 | CCCC[C@@H]1NC(=O)[C@H](Cc2ccc(O)cc2)NC(=O)[C@@H]2CCCN2C(=O)[C@H](CC(=O)O)NC(=O)[C@H](C)NC(=O)[C@H](Cc2ccccc2)NC(=O)[C@@H]2CSCCC(=O)N3CN(CN(C3)C(=O)CCSC[C@@H](C(=O)N[C@@H](CNC(=O)CCOCCOCCOCCOCCOCCOCCOCCOCCOCCOCCOCCOCCn3cc(CCC(=O)NCCCC[C@@H]4NC(=O)[C@H](CCC(N)=O)NC(=O)[C@@H]5CSCCC(=O)N6CN(CN(C6)C(=O)CCSC[C@@H](C(=O)N6CCC[C@H]6C(=O)N[C@@H](CO)C(=O)N[C@@H](Cc6c[nH]cn6)C(N)=O)NC(=O)[C@H](CC(C)C)NC(=O)[C@H](Cc6c[nH]cn6)NC(=O)[C@H](CC(C)C)NC4=O)C(=O)CCSC[C@H](NC(=O)[C@H](CCCCN)NC(=O)[C@H](CC(=O)O)NC(=O)[C@H](CO)NC(C)=O)C(=O)N[C@@H](CO)C(=O)N[C@@H](C)C(=O)NCC(=O)N[C@@H](Cc4c[nH]c6ccccc46)C(=O)N[C@@H](CC(C)C)C(=O)N[C@@H]([C@@H](C)O)C(=O)N[C@@H](CCSC)C(=O)N5)nn3)C(N)=O)NC1=O)C(=O)CCSC[C@H](NC(C)=O)C(=O)N[C@@H](CC(C)(C)C)C(=O)N1CCC[C@H]1C(=O)N[C@@H](CCC(=O)O)C(=O)N[C@H](C)C(=O)N1CCC[C@H]1C(=O)N[C@@H](Cc1ccc(O)cc1)C(=O)N2 [BCY11019] | 6

Source: patent US11453703B2, “Heterotandem bicyclic peptide complexes” (BicycleTX Limited, priority 2018, dated 2022)
